Measured values reported in publication PMC3419191, “Identification of Novel Piperazinylquinoxaline Derivatives as Potent Phosphoinositide 3-Kinase (PI3K) Inhibitors” (PLoS ONE, 2012).
pIC50: −log10 of the molar value.

Key:
PC3 = assay: MTT assay, antiproliferative activity against PC3 cells; assay type: cell-based; details: Homo sapiens, PC-3, 72 h, mean of at least two determinations
From the text: (§1) All synthesized target compounds were firstly tested for their antiproliferative activity against five human cancer cell lines, PC3, A549, HCT116, HL60, and KB, using MTT assay.
(§2) Human prostate cancer PC3 cells, lung adenocarcinoma epithelial A549 cells, colon cancer HCT116 cells, promyelocytic leukemia HL60 cells and nasopharyngeal carcinoma KB cells were obtained from the cell bank of the Institute of Biochemistry and Cell Biology, Chinese Academy of Sciences (Shanghai, China). The inhibitory activity of target compounds against tested cancer cell lines was measured using the MTT assay. PC3, A549, HCT116, HL60, and KB cancer cell lines were cultured in RPMI-1640 medium (Invitrogen, Carlsbad, CA, USA) with heat-inactivated 10% fetal bovine serum, penicillin (100 units/mL) and streptomycin (100 µg/mL) and incubated in an atmosphere with 20% oxygen and 5% carbon dioxide at 37°C. All tested compounds were dissolved in DMSO at concentrations of 10.0 mg/mL and diluted to appropriate concentrations. Cells were plated in 96-well plates for 24 h and subsequently treated with different concentrations of all tested compounds for 72 h. Viable cells were determined using 3-(4,5-dimethylthiazol-2-yl)-2,5-diphenyltetrazolium bromide assay kit (MTT, Sigma) according to operation instructions provided by the manufacturer. The concentration of drug causing 50% inhibition in absorbance compared with control cells (IC50) was calculated using the software of dose-effect analysis with microcomputers.

recombinant human PI3Kα = molecular target: T1, recombinant human PI3Kα (Homo sapiens, UniProt P42336); assay: Competitive fluorescence polarization (FP) assay, inhibition of PI3Kα; assay type: biochemical; details: for pIC50: FP assay, 50 µM ATP, mean of at least two determinations; for Binding efficiency index (BEI): BEI = pIC50 (M)/MW (kDa), PI3Kα
T1 construct: purchased Echelon Biosciences (Salt Lake City, UT, USA) E-2000
Experimental: Selected compounds were then tested for their enzymatic inhibitory activity against PI3Kα using a competitive fluorescence polarization (FP) assay to determine the molecular target of synthesized compounds [21].
The PI3Kα inhibitory test was determined using a competitive fluorescence polarization kinase activity assay. PI3K fluorescence polarization assay kit (catalog No. K-1100) and recombinant human PI3Kα (catalog No. E-2000) were purchased from Echelon Biosciences (Salt Lake City, UT, USA). PI3K reactions were performed in 5 mM HEPES, Ph 7, 2.5 mM MgCl2, 10 mM DTT and 50 µM ATP, using diC8-phosphatidylinositol-4, 5-bisphosphate (PIP2) as the substrate, and the final reaction volumes were 10 µL. For evaluation of the PI3Kα inhibitory activity of target compounds, 50 ng enzyme and 10 µM substate were used per 10 µL reaction volume with the concentrations of inhibitors ranging from 3.2 nM to 10 µM. After incubating for 3 h at room temperature, reactions were quenched by adding chelators. A mixture of phosphoinositide binding protein was added and mixed, followed by the addition of a fluorophore-labeled phosphoinositide tracer. Samples were then mixed in 384-well black Corning nonbinding plates (Corning, NY, USA) and incubated in a dark environment for 1 h to equilibrate. Finally, polarization values were measure using red fluorophores with appropriate filters to determine the extent of enzyme activity in the reaction.

A549 = assay: MTT assay, antiproliferative activity against A549 cells; assay type: cell-based; details: Homo sapiens, 72 h, mean of at least two determinations
From the text: as §1, §2

HL60 = assay: MTT assay, antiproliferative activity against HL60 cells; assay type: cell-based; details: Homo sapiens, HL-60, 72 h, mean of at least two determinations
From the text: as §1, §2

KB = assay: MTT assay, antiproliferative activity against KB cells; assay type: cell-based; details: Homo sapiens, 72 h, mean of at least two determinations
From the text: as §1, §2

HCT116 = assay: MTT assay, antiproliferative activity against HCT116 cells; assay type: cell-based; details: Homo sapiens, HCT-116, 72 h, mean of at least two determinations
From the text: as §1, §2

T1 sequence (P42336 whole entry): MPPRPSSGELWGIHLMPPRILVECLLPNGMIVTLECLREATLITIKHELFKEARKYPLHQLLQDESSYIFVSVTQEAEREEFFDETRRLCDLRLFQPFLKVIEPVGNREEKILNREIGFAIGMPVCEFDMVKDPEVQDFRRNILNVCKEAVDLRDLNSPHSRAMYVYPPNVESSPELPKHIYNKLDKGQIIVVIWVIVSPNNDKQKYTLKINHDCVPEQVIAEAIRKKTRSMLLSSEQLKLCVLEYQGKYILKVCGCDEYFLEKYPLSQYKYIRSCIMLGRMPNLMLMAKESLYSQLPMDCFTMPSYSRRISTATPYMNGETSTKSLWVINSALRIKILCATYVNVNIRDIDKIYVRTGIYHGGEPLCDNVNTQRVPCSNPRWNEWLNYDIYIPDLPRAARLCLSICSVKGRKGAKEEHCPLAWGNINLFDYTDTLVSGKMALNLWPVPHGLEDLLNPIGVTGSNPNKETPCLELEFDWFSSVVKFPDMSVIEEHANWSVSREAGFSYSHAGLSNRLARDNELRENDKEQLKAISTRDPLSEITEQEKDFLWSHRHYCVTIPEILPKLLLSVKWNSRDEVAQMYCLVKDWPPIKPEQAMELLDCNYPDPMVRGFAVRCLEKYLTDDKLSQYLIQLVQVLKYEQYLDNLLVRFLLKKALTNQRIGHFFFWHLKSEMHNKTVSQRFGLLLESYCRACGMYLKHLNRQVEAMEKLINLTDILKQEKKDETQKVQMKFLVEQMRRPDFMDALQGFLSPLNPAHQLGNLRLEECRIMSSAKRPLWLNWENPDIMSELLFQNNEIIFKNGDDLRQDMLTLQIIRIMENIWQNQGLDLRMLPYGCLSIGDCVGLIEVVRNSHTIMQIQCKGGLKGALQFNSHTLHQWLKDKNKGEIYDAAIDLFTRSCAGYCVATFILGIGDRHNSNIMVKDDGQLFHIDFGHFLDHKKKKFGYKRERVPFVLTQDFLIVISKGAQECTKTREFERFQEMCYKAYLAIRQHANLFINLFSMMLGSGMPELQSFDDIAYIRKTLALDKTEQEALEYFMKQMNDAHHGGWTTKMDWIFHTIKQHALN
T1 sequence (P27986 whole entry partner): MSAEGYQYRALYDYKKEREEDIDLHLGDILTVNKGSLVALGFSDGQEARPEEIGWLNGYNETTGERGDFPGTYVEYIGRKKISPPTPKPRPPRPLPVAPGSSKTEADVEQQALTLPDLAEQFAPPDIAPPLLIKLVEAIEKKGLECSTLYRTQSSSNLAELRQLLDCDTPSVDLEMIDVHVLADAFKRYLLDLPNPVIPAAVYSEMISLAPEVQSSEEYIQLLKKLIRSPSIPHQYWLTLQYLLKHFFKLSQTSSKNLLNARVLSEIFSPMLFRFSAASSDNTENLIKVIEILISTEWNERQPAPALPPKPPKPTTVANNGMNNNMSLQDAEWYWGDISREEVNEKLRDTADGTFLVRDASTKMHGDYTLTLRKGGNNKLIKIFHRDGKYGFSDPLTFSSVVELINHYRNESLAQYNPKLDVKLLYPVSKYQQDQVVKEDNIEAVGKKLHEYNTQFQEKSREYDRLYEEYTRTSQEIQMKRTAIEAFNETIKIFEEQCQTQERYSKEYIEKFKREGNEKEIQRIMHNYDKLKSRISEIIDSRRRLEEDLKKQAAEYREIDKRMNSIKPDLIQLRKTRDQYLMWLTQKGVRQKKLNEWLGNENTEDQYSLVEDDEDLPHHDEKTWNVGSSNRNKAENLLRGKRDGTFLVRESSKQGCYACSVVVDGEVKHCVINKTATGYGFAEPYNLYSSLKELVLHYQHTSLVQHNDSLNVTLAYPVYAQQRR

SMILES: NC(=O)C1CCN(c2nc3ccccc3nc2S(=O)(=O)c2ccccc2)CC1 [Compound 4, 2-(4-Carbamoylpiperidin-1-yl)-3-(phenylsulfonyl)Fquinoxaline]
- pIC50 (PC3): 5.92
- pIC50 (recombinant human PI3Kα): < 5.00
- melting point: 170 to 174 °C
- pIC50 (A549): 4.57
- pIC50 (HL60): 6.66
- pIC50 (KB): 4.86
- pIC50 (HCT116): 5.80

SMILES: CC(=O)N1CCN(c2nc3ccccc3nc2S(=O)(=O)c2ccccc2)CC1 [Compound 9, 2-(4-Acetylpiperazin-1-yl)-3-(phenylsulfonyl)quinoxaline]
- pIC50 (PC3): 5.65
- Binding efficiency index (BEI) (recombinant human PI3Kα): 15.1
- pIC50 (recombinant human PI3Kα): 5.96
- melting point: 144 to 146 °C
- pIC50 (A549): 5.99
- pIC50 (HL60): 5.61
- pIC50 (KB): 5.35
- pIC50 (HCT116): 5.74

SMILES: CN1CCN(c2nc3ccccc3nc2S(=O)(=O)c2ccccc2)CC1 [Compound 14, 2-(4-Methylpiperazin-1-yl)-3-(phenylsulfonyl)quinoxaline]
- pIC50 (PC3): 5.53
- pIC50 (recombinant human PI3Kα): < 5.00
- melting point: 154 to 157 °C
- pIC50 (A549): 4.85
- pIC50 (HL60): 6.11
- pIC50 (KB): 5.34
- pIC50 (HCT116): 5.56

SMILES: Cc1ccc(S(=O)(=O)c2nc3ccccc3nc2N2CCN(C)CC2)cc1 [Compound 15, 2-(4-Methylpiperazin-1-yl)-3-(4-methylphenylsulfonyl)quinoxaline]
- pIC50 (PC3): 6.08
- pIC50 (recombinant human PI3Kα): < 5.00
- melting point: 127 to 130 °C
- pIC50 (A549): 5.62
- pIC50 (HL60): 6.16
- pIC50 (KB): 6.33
- pIC50 (HCT116): 5.77

SMILES: CN1CCN(c2nc3ccccc3nc2S(=O)(=O)c2ccc(Br)cc2)CC1 [Compound 17, 2-(4-Methylpiperazin-1-yl)-3-(4-bromophenylsulfonyl)quinoxaline]
- pIC50 (PC3): 6.00
- Binding efficiency index (BEI) (recombinant human PI3Kα): 12.0
- pIC50 (recombinant human PI3Kα): 5.37
- melting point: 141 to 142 °C
- pIC50 (A549): 5.29
- pIC50 (HL60): 6.55
- pIC50 (KB): 6.06
- pIC50 (HCT116): 5.64

SMILES: O=S(=O)(c1ccccc1)c1nc2ccccc2nc1N1CCNCC1 [Compound 19, 2-(Piperazin-1-yl)-3-(phenylsulfonyl)quinoxaline]
- pIC50 (PC3): 6.05
- Binding efficiency index (BEI) (recombinant human PI3Kα): 19.0
- pIC50 (recombinant human PI3Kα): 6.72
- pIC50 (A549): 4.89
- pIC50 (HL60): 6.96
- pIC50 (KB): 5.08
- pIC50 (HCT116): 6.00

SMILES: O=S(=O)(c1ccc(Br)cc1)c1nc2ccccc2nc1N1CCNCC1 [Compound 22, 2-(Piperazin-1-yl)-3-(4-bromophenylsulfonyl)quinoxaline]
- pIC50 (PC3): 6.44
- Binding efficiency index (BEI) (recombinant human PI3Kα): 17.0
- pIC50 (recombinant human PI3Kα): 7.40
- melting point: 92 to 96 °C
- pIC50 (A549): 6.12
- pIC50 (HL60): 7.00
- pIC50 (KB): 5.00
- pIC50 (HCT116): 6.72

SMILES: CC1CN(c2nc3ccccc3nc2S(=O)(=O)c2ccccc2)CCN1 (stereo not shown) [Compound 24, 2-(3-Methylpiperazin-1-yl)-3-(phenylsulfonyl)quinoxaline]
- pIC50 (PC3): 5.84
- Binding efficiency index (BEI) (recombinant human PI3Kα): 19.7
- pIC50 (recombinant human PI3Kα): 7.23
- pIC50 (A549): 5.87
- pIC50 (HL60): 6.82
- pIC50 (KB): 5.06
- pIC50 (HCT116): 6.17

SMILES: O=C(c1ccc(Cl)cc1)N1CCN(c2nc3ccccc3nc2S(=O)(=O)c2ccc(F)cc2)CC1 [Compound 38, 2-(4-(4-Chlorobenzoyl)piperazin-1-yl)-3-(4-fluorophenylsulfonyl)quinoxaline]
- pIC50 (PC3): 5.39
- melting point: 214 to 215 °C
- pIC50 (A549): 4.75
- pIC50 (HL60): 5.35
- pIC50 (KB): 5.73
- pIC50 (HCT116): 5.06

SMILES: CS(=O)(=O)N1CCN(c2nc3ccccc3nc2S(=O)(=O)c2ccccc2)CC1 [Compound 39, 2-(4-(Methylsulfonyl)piperazin-1-yl)-3-(phenylsulfonyl)quinoxaline]
- pIC50 (PC3): 5.97
- Binding efficiency index (BEI) (recombinant human PI3Kα): 13.6
- pIC50 (recombinant human PI3Kα): 5.87
- melting point: 182 to 185 °C
- pIC50 (A549): 5.63
- pIC50 (HCT116): 5.92

SMILES: Cc1ccc(S(=O)(=O)c2nc3ccccc3nc2N2CCN(S(C)(=O)=O)CC2)cc1 [Compound 40, 2-(4-(Methylsulfonyl)piperazin-1-yl)-3-(4-methylphenylsulfonyl)quinoxaline]
- pIC50 (PC3): 5.27
- pIC50 (recombinant human PI3Kα): 6.34
- pIC50 (A549): 5.71
- pIC50 (HCT116): 5.97

SMILES: CS(=O)(=O)N1CCN(c2nc3ccccc3nc2S(=O)(=O)c2ccc(Br)cc2)CC1 [Compound 42, 2-(4-(Methylsulfonyl)piperazin-1-yl)-3-(4-bromophenylsulfonyl)quinoxaline]
- pIC50 (PC3): 5.71
- Binding efficiency index (BEI) (recombinant human PI3Kα): 12.4
- pIC50 (recombinant human PI3Kα): 6.36
- melting point: 194 to 196 °C
- pIC50 (A549): 5.88
- pIC50 (HCT116): 6.39

SMILES: CS(=O)(=O)N1CCN(c2nc3ccccc3nc2S(=O)(=O)c2ccc(F)cc2)CC1 [Compound 43, 2-(4-(Methylsulfonyl)piperazin-1-yl)-3-(4-fluorophenylsulfonyl)quinoxaline]
- pIC50 (PC3): 5.48
- Binding efficiency index (BEI) (recombinant human PI3Kα): 13.3
- pIC50 (recombinant human PI3Kα): 5.99
- melting point: 206 to 207 °C
- pIC50 (A549): 5.90
- pIC50 (HCT116): 6.48

SMILES: Cc1ccc(S(=O)(=O)c2nc3ccccc3nc2N2CCN(S(=O)(=O)c3ccc(C)cc3)CC2)cc1 [Compound 45, 2-(4-(4-Methylphenylsulfonyl)piperazin-1-yl)-3-(4-methylphenylsulfonyl)-quinoxaline]
- pIC50 (PC3): 5.46
- melting point: 174 to 175 °C
- pIC50 (A549): 4.31
- pIC50 (HL60): 5.03
- pIC50 (KB): 5.57
- pIC50 (HCT116): 5.72

SMILES: COc1ccc(S(=O)(=O)c2nc3ccccc3nc2N2CCN(S(=O)(=O)c3ccc(C)cc3)CC2)cc1 [Compound 46, 2-(4-(4-Methylphenylsulfonyl)piperazin-1-yl)-3-(4-methoxyphenylsulfonyl)-quinoxaline]
- pIC50 (PC3): 5.21
- melting point: 172 to 175 °C
- pIC50 (A549): < 4.30
- pIC50 (HL60): 4.83
- pIC50 (KB): 5.63
- pIC50 (HCT116): 4.85

SMILES: Cc1ccc(S(=O)(=O)N2CCN(c3nc4ccccc4nc3S(=O)(=O)c3ccc(Br)cc3)CC2)cc1 [Compound 47, 2-(4-(4-Methylphenylsulfonyl)piperazin-1-yl)-3-(4-bromophenylsulfonyl)-quinoxaline]
- pIC50 (PC3): 5.31
- melting point: 214 to 216 °C
- pIC50 (A549): 4.71
- pIC50 (HL60): 4.99
- pIC50 (KB): 5.56
- pIC50 (HCT116): 5.29

SMILES: Cc1ccc(S(=O)(=O)N2CCN(c3nc4ccccc4nc3S(=O)(=O)c3ccc(F)cc3)CC2)cc1 [Compound 48, 2-(4-(4-Methylphenylsulfonyl)piperazin-1-yl)-3-(4-fluorophenylsulfonyl)-quinoxaline]
- pIC50 (PC3): 5.47
- melting point: 172 to 174 °C
- pIC50 (A549): 4.32
- pIC50 (HL60): 5.02
- pIC50 (KB): 5.29
- pIC50 (HCT116): 5.42

SMILES: O=S(=O)(c1ccccc1)c1nc2ccccc2nc1N1CCN(CCCN2CCOCC2)CC1 [Compound 49, 2-(4-(3-Morpholinopropyl)piperazin-1-yl)-3-(phenylsulfonyl)quinoxaline]
- pIC50 (PC3): 5.29
- Binding efficiency index (BEI) (recombinant human PI3Kα): 14.0
- pIC50 (recombinant human PI3Kα): 6.74
- pIC50 (A549): 6.14
- pIC50 (HCT116): 6.19

SMILES: O=S(=O)(c1ccc(Br)cc1)c1nc2ccccc2nc1N1CCN(CCCN2CCOCC2)CC1 [Compound 52, 2-(4-(3-Morpholinopropyl)piperazin-1-yl)-3-(4-bromophenylsulfonyl)quinoxaline]
- pIC50 (PC3): 5.92
- Binding efficiency index (BEI) (recombinant human PI3Kα): 11.9
- pIC50 (recombinant human PI3Kα): 6.70
- pIC50 (A549): 6.47
- pIC50 (HCT116): 6.66

SMILES: O=S(=O)(c1ccccc1)c1nc2ccccc2nc1N1CCOCC1 [WR1, reference compound]
- pIC50 (PC3): 4.72
- Binding efficiency index (BEI) (recombinant human PI3Kα): 17.9
- pIC50 (A549): 4.90
- pIC50 (HL60): 5.35
- pIC50 (HCT116): 5.27

SMILES: O=S(=O)(c1ccc(Br)cc1)c1nc2ccccc2nc1N1CCC(O)CC1 [WR23, reference compound]
- Binding efficiency index (BEI) (recombinant human PI3Kα): 17.0
